Key:
[1] = target: T1, Alpha-galactosidase (Aspergillus niger) (UniProt Q9Y865); assay: Inhibition of Aspergillus niger alpha-galactosidase at 1.2 ug/mL by colorimetric assay
T1 sequence (whole entry): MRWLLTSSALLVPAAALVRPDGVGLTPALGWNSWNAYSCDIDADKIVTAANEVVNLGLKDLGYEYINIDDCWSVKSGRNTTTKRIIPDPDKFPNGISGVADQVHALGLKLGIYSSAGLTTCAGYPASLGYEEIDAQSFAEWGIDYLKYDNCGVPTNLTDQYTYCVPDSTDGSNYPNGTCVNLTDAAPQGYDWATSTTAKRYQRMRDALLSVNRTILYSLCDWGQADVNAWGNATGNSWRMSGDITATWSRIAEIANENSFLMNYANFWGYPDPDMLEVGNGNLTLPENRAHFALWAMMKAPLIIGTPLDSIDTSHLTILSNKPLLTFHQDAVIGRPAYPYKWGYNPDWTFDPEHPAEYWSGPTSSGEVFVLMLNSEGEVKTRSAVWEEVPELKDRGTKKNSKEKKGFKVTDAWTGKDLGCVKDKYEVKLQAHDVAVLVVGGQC

Prunus dulcis = assay: Inhibition of almond beta-glucosidase at 0.6 ug/mL by colorimetric assay
Canavalia ensiformis = assay: Inhibition of jack bean alpha-mannosidase at 25 to 30 ng/mL by colorimetric assay

Compound	inhibition [1] [%]	inhibition (Prunus dulcis) [%]	inhibition (Canavalia ensiformis) [%]
O[C@@H]1[C@@H](O)[C@H](O)[C@]2(O)CC[C@H]1N2	50	50	–
O[C@H]1[C@H]2[C@H](O)CCCN2C[C@H]1O	–	–	50
